# Reference: patent publication US5965701A, “Kappa receptor opioid peptides” (priority 1997, dated 1999)
# pKi: −log10 of the molar value. “And” between values parts separate entries of the source, which are not always exact repeats. Equal values may be shown once. Where a SMILES comes first, the peptide text is derived from it. [ ]: non-standard residue; d: D form. The star is where a group is joined. dPhe(3,4-Cl2) = N[C@H](Cc1ccc(Cl)c(Cl)c1)C(=O)O; NH(thiazol-2-yl) = c1csc(N*)n1; d2Thi = N[C@H](Cc1cccs1)C(=O)O; NH(4-picolyl) = c1cc(CN*)ccn1; dNle = CCCC[C@@H](N)C(=O)O; Morpholide = C1CN(*)CCO1; NHCH2CH2OH = OCCN*; X2 = OC1CCN(*)CC1; X1 = C1CN(*)CCS1; NEt2 = CCN(CC)*; NHcPr = C1CC1N*; NHBu = CCCCN*; NHPr = CCCN*
# How the values were obtained:
# [1] = target: T1, cloned human kappa (hKOR) receptor (Homo sapiens, UniProt P41145); test: biochemical; type: binding; conditions: for μ/κ Ratio (binding affinity for KOR versus MOR): Ki MOR / Ki KOR; for pKi: read-out: Ki KOR
# T1 construct: expressed in transfected cells; host or cells: HN9.10 (mouse hippocampal neuroblastoma), stably transfected
# [2] = target: T2, cloned human mu opioid (hMOR) receptor (Homo sapiens, UniProt P35372); test: Competition binding at cloned hMOR, displacement of 3H-DAMGO; conditions: hMOR stably expressed in HN.9.10 cells, read-out: Ki MOR
# T2 construct: expressed in transfected cells; host or cells: HN9.10 (mouse hippocampal neuroblastoma), stably transfected
# [3] = system: conscious male ICR mice; test: Mouse acetic acid writhing test (WT); type: in vivo; conditions: for WT-ED50: i.v., 5 minutes before acetic acid i.p., writhes over 15 minutes; for % Antinociception 1 hr: 60 min pretreatment; for % Antinociception 2 hr: 120 min pretreatment
# Procedure: Selected peptides that are identified in Tables A-G have been further specifically subjected to in vivo testing for determination of duration of action of their opioid properties, and the results are reported in Table H hereinafter. The peptide numbers correspond to those in the earlier tables and the figures with regard to μ/K ratio are simply carried over for reference purposes. The in vivo testing is carried out using a mouse writhing test (WT) that is well-suited for determining the length of duration of antinociceptive biological activity. This test is described in detail in an article by G. A. Bentley et al., Br. J. Phamac., 73:325-332, 1981, and it employs conscious male ICR mice which are purchased from Harlan and which weigh between 20 and 30 grams. The mice are fasted for 12 to 16 hours prior to beginning the test. The nociceptive behavior, i.e. writhing, to be monitored is induced by the intraperitoneal (i.p.) administration of dilute acetic acid. 10 milliliters of 0.6% aqueous acetic acid is used per kg of body weight. Writhing is scored during the 15 minutes following acetic acid administration. In a first step, compounds are tested at 3 to 4 increasing doses, given by intravenous route, and at one unique pretreatment time (-5 minutes before acetic acid injection). […] In a second step, this submaximal effective dose for each specific peptide is administered at various pretreatment times (i.e. -5 minutes, -60 minutes, -120 minutes and -180 minutes) prior to the administration of the acetic acid in order to determine the duration of action. Throughout the test, a control group of mice are used which are administered only the vehicle without the candidate peptide. The number of writhes are counted over a 15-minute period, starting from the time of acetic acid injection, and bioactivity, i.e. antinociception, is expressed as a percentage, and is calculated as follows:
# 100×(writhes in control group-writhes in treated group)/writhes in
# Values higher than 100% indicate greater antinociception than at the beginning of the experiment. It is felt that the opioid peptide should be effective to reduce writhing by at least about 25% at a time of 1 hour to be considered to have long duration of in vivo action.
# In addition to using this test to determine duration of antinociceptive activity, it is also used to measure the in vivo biopotency (short term) of the peptide. This value is given in the table under the heading WT-ED50 in milligrams per kg of body weight. The value is a measure of the dosage necessary to reduce the number of writhes in the mouse being tested by 50% (as compared to a control mouse) over a period of 15 minutes.
# [4] = system: mouse; conditions: for TF-ED50: i.v., 52° C. water, central effects; for BPI (Brain Penetration Index): mouse, in vivo, iv
# [5] = submaximal effective dose i.v., percentage of the activity found at -5 min
# T2 sequence (P35372 whole entry): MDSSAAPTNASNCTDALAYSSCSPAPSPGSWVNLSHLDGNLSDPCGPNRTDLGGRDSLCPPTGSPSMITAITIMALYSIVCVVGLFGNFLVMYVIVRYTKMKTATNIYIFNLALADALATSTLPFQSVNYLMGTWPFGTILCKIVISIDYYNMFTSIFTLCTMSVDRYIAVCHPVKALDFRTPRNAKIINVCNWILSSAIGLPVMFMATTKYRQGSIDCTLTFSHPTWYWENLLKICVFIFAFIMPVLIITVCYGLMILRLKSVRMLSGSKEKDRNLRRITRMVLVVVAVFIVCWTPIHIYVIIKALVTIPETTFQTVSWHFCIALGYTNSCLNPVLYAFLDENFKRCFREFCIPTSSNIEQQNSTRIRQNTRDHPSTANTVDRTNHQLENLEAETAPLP
# T1 sequence (P41145 whole entry): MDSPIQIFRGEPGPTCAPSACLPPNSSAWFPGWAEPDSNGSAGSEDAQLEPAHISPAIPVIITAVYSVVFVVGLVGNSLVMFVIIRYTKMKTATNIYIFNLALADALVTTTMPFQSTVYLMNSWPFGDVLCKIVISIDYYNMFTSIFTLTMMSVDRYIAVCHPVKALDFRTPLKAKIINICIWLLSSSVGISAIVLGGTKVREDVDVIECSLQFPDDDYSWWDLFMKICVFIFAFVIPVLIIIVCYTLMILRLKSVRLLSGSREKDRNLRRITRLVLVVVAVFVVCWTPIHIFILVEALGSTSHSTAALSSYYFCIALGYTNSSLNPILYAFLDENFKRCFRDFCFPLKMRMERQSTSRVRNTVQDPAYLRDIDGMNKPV
SMILES,μ/κ Ratio (binding affinity for KOR versus MOR) [1],pKi [1],pKi [2],WT-ED50 [3],"% Antinociception 1 hr [3, 5] [%]","% Antinociception 2 hr [3, 5] [%]","% Antinociception 3 hr ([3]; submaximal effective dose i.v., 180 min pretreatment, percentage of the activity found at -5 min) [%]",TF-ED50 [4] [mg/kg],BPI (Brain Penetration Index) [4]
"CC(C)C[C@@H](NC(=O)[C@@H](Cc1ccccc1)NC(=O)[C@H](N)Cc1ccccc1)C(=O)N[C@H](CCCN)C(=O)N1CCOCC1 [Peptide 57, H-D-Phe-D-Phe-D-Leu-D-Onn-Mor]","28,000",9.72,5.28,0.026 mg/kg,100,67.2,58.2,5.6,215
"CCCC[C@@H](NC(=O)[C@@H](Cc1ccccc1)NC(=O)[C@H](N)Cc1ccccc1)C(=O)N[C@H](CCCNC(=N)N)C(=O)NC1CC1 [Peptide 5, H-D-Phe-D-Phe-D-Nle-D-Arg-NH(Cyp)] (H-[dF][dF][dNle][dR]-NHcPr)","20,000",9.74,5.45,0.04 mg/kg,66,34.5,,4.4,110
"CCCC[C@@H](NC(=O)[C@@H](Cc1ccccc1)NC(=O)[C@H](N)Cc1ccccc1)C(=O)N[C@H](CCCNC(=N)N)C(=O)NCc1ccncc1 [Peptide 8, H-D-Phe-D-Phe-D-Nle-D-Arg-NH(4-Pic)] (H-[dF][dF][dNle][dR]-{NH(4-picolyl)})","26,000",9.85,5.44,0.01 mg/kg,66.9,45.1,,9.84,984
"CCCC[C@@H](NC(=O)[C@@H](Cc1ccccc1)NC(=O)[C@H](N)Cc1ccccc1)C(=O)N[C@H](CCCNC(=N)N)C(=O)NCCO [Peptide 9, H-D-Phe-D-Phe-D-Nle-D-Arg-NHhEt] (H-[dF][dF][dNle][dR]-NHCH2CH2OH)","2,500",9.40,6.00,0.03 mg/kg,72.5,39.5,,,
"CCCC[C@@H](NC(=O)[C@@H](Cc1ccccc1)NC(=O)[C@H](N)Cc1ccccc1)C(=O)N[C@H](CCCNC(=N)N)C(=O)N1CCOCC1 [Peptide 6, H-D-Phe-D-Phe-D-Nle-D-Arg-Mor] (H-[dF][dF][dNle][dR]-Morpholide)","42,000",10.22,5.60,0.014 mg/kg,105.7,52.7,,6.4,457
"CCCC[C@@H](NC(=O)[C@@H](Cc1ccccc1)NC(=O)[C@H](N)Cc1ccccc1)C(=O)N[C@H](CCCNC(=N)N)C(=O)Nc1nccs1 [Peptide 13, H-D-Phe-D-Phe-D-Nle-D-Arg-NH(2-Tzl)] (H-[dF][dF][dNle][dR]-{NH(thiazol-2-yl)})","2,700",9.23,5.80,0.44 mg/kg,30.7,,,,
"CCCC[C@@H](NC(=O)[C@@H](Cc1ccccc1)NC(=O)[C@H](N)Cc1ccccc1)C(=O)N[C@H](CCCNC(=N)N)C(=O)N1CCSCC1 [Peptide 10, H-D-Phe-D-Phe-D-Nle-D-Arg-Tmo] (H-[dF][dF][dNle][dR]-X1)","25,000",10.05,5.65,0.067 mg/kg and 0.07 mg/kg,81.6,47.5,,,
"CCCC[C@@H](NC(=O)[C@@H](Cc1ccccc1)NC(=O)[C@H](N)Cc1ccccc1)C(=O)N[C@H](CCCNC(=N)N)C(=O)N(CC)CC [Peptide 7, H-D-Phe-D-Phe-D-Nle-D-Arg-N(Et2)] (H-[dF][dF][dNle][dR]-NEt2)","17,000",9.96,5.72,0.02 mg/kg and 0.020 mg/kg,67.5,36.8,,3.1,155
"CCCCNC(=O)[C@@H](CCCNC(=N)N)NC(=O)[C@@H](CCCC)NC(=O)[C@@H](Cc1ccccc1)NC(=O)[C@H](N)Cc1ccccc1 [Peptide 4, H-D-Phe-D-Phe-D-Nle-D-Arg-NHBu] (H-[dF][dF][dNle][dR]-NHBu)","7,200",9.72,5.86,0.3 mg/kg and 0.30 mg/kg,49.3,,,,
"CCCC[C@@H](NC(=O)[C@@H](Cc1ccccc1)NC(=O)[C@H](N)Cc1ccccc1)C(=O)N[C@H](CCCNC(=N)N)C(=O)NCCC [Peptide 3, H-D-Phe-D-Phe-D-Nle-D-Arg-NHPr] (H-[dF][dF][dNle][dR]-NHPr)","18,000",10.05,5.79,0.078 mg/kg,29,30.7,,13.82,177
"CCCC[C@@H](NC(=O)[C@@H](Cc1ccccc1)NC(=O)[C@H](N)Cc1ccccc1)C(=O)N[C@H](CCCNC(=N)N)C(=O)N1CCC(O)CC1 [Peptide 11, H-D-Phe-D-Phe-D-Nle-D-Arg-4-HyP] (H-[dF][dF][dNle][dR]-X2)","62,000",10.22,5.43,0.073 mg/kg and 0.07 mg/kg,61.8,36.9,,,
"CC(C)C[C@@H](NC(=O)[C@@H](Cc1ccc(Cl)c(Cl)c1)NC(=O)[C@H](N)Cc1cccs1)C(=O)N[C@H](CCCNC(=N)N)C(=O)NCc1ccncc1 [Peptide 60, H-D-Ala(2Thi)-D-3,4Cpa-D-Leu-D-Arg-NH(4Pic)] (H-[d2Thi][dPhe(3,4-Cl2)][dL][dR]-{NH(4-picolyl)})","1,900",9.40,6.11,0.083 mg/kg,83.8,35.5,,,
